From PubChem BioAssay AID248 (DTP/NCI, 2004)
Toxic doses and inconclusive results are not listed. Square brackets hold non-standard residues; d marks the D form. Peptide text beside a SMILES is read from it. * marks the point of attachment. ξ: configuration not given here. Cbz = O=C(OCc1ccccc1)*; ξNle = CCCCC(N)C(=O)O

System: L1210 leukemia ip in BDF1 mice, survival T/C
Assay: NCI In Vivo Anticancer Drug Screen. Data for tumor model L1210 Leukemia (intraperitoneal) in B6D2F1 (BDF1) mice
Conditions: endpoint: mean survival time, higher = longer survival
In short: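 Each compound was tested against a transplantable tumor grown in mice. The endpoint was survival, with treated animals benchmarked against vehicle controls as a simple ratio.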

[1] = dose: 100.0 mg/kg/injection, schedule: Q04DX003 (ip), vehicle: saline with Tween-80
[2] = dose: 200.0 mg/kg/injection, schedule: Q04DX003 (ip), vehicle: saline with Tween-80
[3] = dose: 400.0 mg/kg/injection, schedule: Q04DX003 (ip), vehicle: saline with Tween-80
[4] = dose: 50.0 mg/kg/injection, schedule: Q01DX001 (ip), vehicle: saline
[5] = dose: 100.0 mg/kg/injection, schedule: Q01DX001 (ip), vehicle: saline
[6] = dose: 100.0 mg/kg/injection, schedule: Q04DX003 (ip), vehicle: Klucel (hydroxypropylcellulose) (HPC)
[7] = dose: 200.0 mg/kg/injection, schedule: Q04DX003 (ip), vehicle: Klucel (hydroxypropylcellulose) (HPC)

Compound: c1ccc(C2CN3CCSC3=N2)cc1 (stereo unspecified)
- T/C (dose: 0.78 mg/kg/injection, schedule: Q04DX003 (ip), vehicle: saline): 102 % of control
- T/C (dose: 1.56 mg/kg/injection, schedule: Q01DX009 (ip), vehicle: saline): 97 % of control
- T/C (dose: 1.56 mg/kg/injection, schedule: Q04DX003 (ip), vehicle: saline): 100 % of control
- T/C (dose: 3.12 mg/kg/injection, schedule: Q01DX009 (ip), vehicle: saline): 100 % of control
- T/C (dose: 3.12 mg/kg/injection, schedule: Q04DX003 (ip), vehicle: saline): 98 % of control
- T/C (dose: 6.25 mg/kg/injection, schedule: Q01DX009 (ip), vehicle: saline): 102 % of control
- T/C (dose: 6.25 mg/kg/injection, schedule: Q04DX003 (ip), vehicle: saline): 104 % of control
- T/C (dose: 12.5 mg/kg/injection, schedule: Q01DX009 (ip), vehicle: saline): 94 % of control
- T/C (dose: 12.5 mg/kg/injection, schedule: Q04DX003 (ip), vehicle: saline): 107 % of control
- T/C (dose: 25.0 mg/kg/injection, schedule: Q01DX009 (ip), vehicle: saline): 105 % of control
- T/C (dose: 25.0 mg/kg/injection, schedule: Q04DX003 (ip), vehicle: saline): 114 % of control

Compound: COc1cc(C(=O)O)ccc1[N+](=O)[O-]
- T/C [1]: 102 % of control
- T/C [2]: 102 % of control
- T/C [3]: 96 % of control

Compound: C(=C/[PH+](c1ccccc1)c1ccccc1)/[PH+](c1ccccc1)c1ccccc1.C(=C/[PH+](c1ccccc1)c1ccccc1)/[PH+](c1ccccc1)c1ccccc1.[O-][Cl+3]([O-])([O-])O.[Rh]
- T/C (dose: 100.0 mg/kg/injection, schedule: Q01DX001 (ip), vehicle: saline with Tween-80): 92 % of control
- T/C (dose: 400.0 mg/kg/injection, schedule: Q01DX001 (ip), vehicle: saline with Tween-80): 89 % of control

Compound: O=C(CCCCC(=O)N/N=C\c1ccccc1O)N/N=C\c1ccccc1O
- T/C [1]: 87 % of control
- T/C [2]: 89 % of control
- T/C [3]: 87 % of control

Compound: O=[N+]([O-])c1cccc(O)c1
- T/C (dose: 50.0 mg/kg/injection, schedule: Q01DX009 (ip), vehicle: saline): 99 % of control
- T/C (dose: 100.0 mg/kg/injection, schedule: Q01DX009 (ip), vehicle: saline): 92 % of control
- T/C (dose: 100.0 mg/kg/injection, schedule: Q04DX003 (ip), vehicle: other): 106 % of control
- T/C (dose: 200.0 mg/kg/injection, schedule: Q01DX009 (ip), vehicle: saline): 115 % of control
- T/C (dose: 200.0 mg/kg/injection, schedule: Q04DX003 (ip), vehicle: other): 112 % of control

Compound: COC(=O)CCc1c[nH]c2ccc(N(CCCl)CCCl)cc12
- T/C (dose: 0.06 mg/kg/injection, schedule: Q01DX015 (ip), vehicle: carboxymethylcellulose (CMC)): 104 % of control
- T/C (dose: 0.13 mg/kg/injection, schedule: Q01DX015 (ip), vehicle: carboxymethylcellulose (CMC)): 105 % of control
- T/C (dose: 0.25 mg/kg/injection, schedule: Q01DX015 (ip), vehicle: carboxymethylcellulose (CMC)): 110 % of control
- T/C (dose: 0.5 mg/kg/injection, schedule: Q01DX015 (ip), vehicle: carboxymethylcellulose (CMC)): 120 % of control
- T/C (dose: 1.0 mg/kg/injection, schedule: Q01DX015 (ip), vehicle: carboxymethylcellulose (CMC)): 100 % of control
- T/C (dose: 1.9 mg/kg/injection, schedule: Q01DX009 (ip), vehicle: other): 118 % of control
- T/C (dose: 3.0 mg/kg/injection, schedule: Q01DX015 (ip), vehicle: carboxymethylcellulose (CMC)): 119 % of control
- T/C (dose: 3.8 mg/kg/injection, schedule: Q04DX003 (ip), vehicle: saline): 108 % of control
- T/C (dose: 7.5 mg/kg/injection, schedule: Q04DX003 (ip), vehicle: saline): 115 % of control
- T/C (dose: 15.0 mg/kg/injection, schedule: Q01DX009 (ip), vehicle: other): 123 % of control
- T/C (dose: 30.0 mg/kg/injection, schedule: Q04DX003 (ip), vehicle: saline): 177 % of control

Compound: c1ccc2c(c1)CCN(C1=NCCO1)C2
- T/C (dose: 9.5 mg/kg/injection, schedule: Q01DX001 (ip), vehicle: saline): 112 % of control
- T/C (dose: 10.0 mg/kg/injection, schedule: Q04DX003 (ip), vehicle: saline): 97 % of control
- T/C (dose: 19.0 mg/kg/injection, schedule: Q01DX001 (ip), vehicle: saline): 100 % of control
- T/C (dose: 20.0 mg/kg/injection, schedule: Q04DX003 (ip), vehicle: saline): 94 % of control
- T/C (dose: 38.0 mg/kg/injection, schedule: Q01DX001 (ip), vehicle: saline): 101 % of control
- T/C (dose: 40.0 mg/kg/injection, schedule: Q04DX003 (ip), vehicle: saline): 90 % of control

Compound: Cc1ccc(/C(C#N)=C2C=C(Br)/C(=N\O)C=C/2Cl)cc1
- T/C (dose: 150.0 mg/kg/injection, schedule: Q01DX009 (ip), vehicle: saline with Tween-80): 97 % of control
- T/C (dose: 225.0 mg/kg/injection, schedule: Q01DX009 (ip), vehicle: saline with Tween-80): 90 % of control

Compound: CC(O)(CC(c1ccccc1)N1CCc2ccccc2C1)c1ccccc1 (stereo unspecified)
- T/C (dose: 100.0 mg/kg/injection, schedule: Q04DX003 (ip), vehicle: saline): 105 % of control
- T/C (dose: 200.0 mg/kg/injection, schedule: Q04DX003 (ip), vehicle: saline): 102 % of control
- T/C (dose: 400.0 mg/kg/injection, schedule: Q04DX003 (ip), vehicle: saline): 96 % of control

Compound: CC[N+](C)(CC)CCNC(c1ccc(OC)c(OC)c1)C(Cl)(Cl)Cl (stereo unspecified)
- T/C (dose: 75.0 mg/kg/injection, schedule: Q01DX001 (ip), vehicle: saline): 88 % of control

Compound: C=C(C)C1CCC2(C(=O)OC)CCC3(C)C(CCC4C5(C)CCC(OC6CCCCO6)C(C)(C)C5CCC43C)C12 (stereo unspecified)
- T/C (dose: 25.0 mg/kg/injection, schedule: Q04DX002 (ip), vehicle: saline with Tween-80): 86 % of control
- T/C (dose: 100.0 mg/kg/injection, schedule: Q04DX002 (ip), vehicle: saline with Tween-80): 86 % of control

Compound: O=C(CCCC(=O)NNC(=O)Nc1cccc2ccccc12)NNC(=O)Nc1cccc2ccccc12
- T/C [4]: 98 % of control
- T/C [5]: 96 % of control
- T/C (dose: 200.0 mg/kg/injection, schedule: Q01DX001 (ip), vehicle: saline): 87 % of control

Compound: CC(=O)NN1C(=O)c2ccccc2C1=O
- T/C (dose: 50.0 mg/kg/injection, schedule: Q04DX003 (ip), vehicle: Klucel (hydroxypropylcellulose) (HPC)): 97 % of control
- T/C [6]: 104 % of control
- T/C [7]: 101 % of control

Compound: C=C(C)C(=O)O[C@@H]1C[C@@]2(C)O[C@@H]2C[C@H](O)/C(C)=C/[C@H]2OC(=O)C(=C)[C@@H]21
- T/C (dose: 25.0 mg/kg/injection, schedule: Q01DX001 (ip), vehicle: saline): 91 % of control
- T/C [4]: 96 % of control
- T/C [5]: 112 % of control

Compound: Nc1ccc(-c2ccccc2)cc1Br
- T/C (dose: 15.0 mg/kg/injection, schedule: Q01DX001 (ip), vehicle: carboxymethylcellulose (CMC)): 101 % of control
- T/C (dose: 30.0 mg/kg/injection, schedule: Q01DX001 (ip), vehicle: carboxymethylcellulose (CMC)): 96 % of control

Compound: CCCCC(NC(=O)CNC(=O)CNC(=O)OCc1ccccc1)C(=O)O (stereo not drawn) (Cbz-Gly-Gly-[ξNle]-OH)
- T/C [6]: 108 % of control
- T/C [7]: 104 % of control
- T/C (dose: 400.0 mg/kg/injection, schedule: Q04DX003 (ip), vehicle: Klucel (hydroxypropylcellulose) (HPC)): 96 % of control

Compound: CN(C)S(=O)(=O)c1ccc(N)cc1
- T/C (dose: 100.0 mg/kg/injection, schedule: Q01DX001 (ip), vehicle: other): 91 % of control
- T/C (dose: 200.0 mg/kg/injection, schedule: Q01DX001 (ip), vehicle: other): 101 % of control
- T/C (dose: 400.0 mg/kg/injection, schedule: Q01DX001 (ip), vehicle: other): 90 % of control
